SMILES strings stand for the structures. Active and inactive are the calls of the source. Where only a bound is given, the exact number is not on record here.

For data set [1], the target named is T1, Cytochrome P450 1A2 (Homo sapiens, UniProt P05177).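 Note: PubChem cytochrome P450 panel assay, CYP1A2 panel member.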
T1 sequence (P05177 whole entry): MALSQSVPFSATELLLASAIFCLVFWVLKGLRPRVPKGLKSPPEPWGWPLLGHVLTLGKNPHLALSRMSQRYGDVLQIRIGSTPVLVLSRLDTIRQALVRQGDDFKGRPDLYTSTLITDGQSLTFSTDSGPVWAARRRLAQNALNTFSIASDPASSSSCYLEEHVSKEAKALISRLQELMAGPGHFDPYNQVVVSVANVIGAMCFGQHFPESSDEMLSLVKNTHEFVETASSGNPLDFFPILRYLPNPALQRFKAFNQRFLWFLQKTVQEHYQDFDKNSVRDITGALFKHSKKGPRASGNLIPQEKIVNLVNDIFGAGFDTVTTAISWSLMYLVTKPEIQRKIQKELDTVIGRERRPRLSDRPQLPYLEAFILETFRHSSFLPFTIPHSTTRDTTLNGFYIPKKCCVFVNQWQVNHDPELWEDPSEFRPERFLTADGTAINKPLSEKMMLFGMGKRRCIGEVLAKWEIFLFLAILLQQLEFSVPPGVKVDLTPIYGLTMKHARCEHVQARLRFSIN

In data set [2] the target is Cytochrome P450 2C19 (Homo sapiens, UniProt P33261). Kind of data set: Cytochrome panel assay with activity outcomes. Panel member name: p450-cyp2c19 Compounds with AC50 equal or less than 10 uM are considered active. Type of data set: functional.
For data set [3], the target named is Cytochrome P450 3A4 (Homo sapiens, UniProt P08684).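 Note: CYP3A4 tested as one member of a cytochrome P450 panel screen.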
For data set [4], the target named is Paired box protein Pax-8 (Homo sapiens, UniProt Q06710). Put plainly: PAX8 transcriptional activity inhibition in RMG-I – RMG-I cells, luciferase, cherry-pick, dose response (AID 687027).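 Note: luciferase reporter driven by Pax8 target thyroperoxidase promoter measured by SteadyGlo luminescence.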 The format is functional, cell-based.
The nature of data set [5]: viability of uninfected HEp-2 cells – cell-based, HTS, cytotoxicity control for RSV inhibitor project, dose response (AID 2410). The format is functional. Particulars: human respiratory syncytial virus.
For data set [6], the target named is T2, Corticotropin-releasing factor receptor 2/Corticotropin-releasing factor-binding protein (Homo sapiens, UniProt P24387+Q13324).
T2 sequence (Q13324 whole entry): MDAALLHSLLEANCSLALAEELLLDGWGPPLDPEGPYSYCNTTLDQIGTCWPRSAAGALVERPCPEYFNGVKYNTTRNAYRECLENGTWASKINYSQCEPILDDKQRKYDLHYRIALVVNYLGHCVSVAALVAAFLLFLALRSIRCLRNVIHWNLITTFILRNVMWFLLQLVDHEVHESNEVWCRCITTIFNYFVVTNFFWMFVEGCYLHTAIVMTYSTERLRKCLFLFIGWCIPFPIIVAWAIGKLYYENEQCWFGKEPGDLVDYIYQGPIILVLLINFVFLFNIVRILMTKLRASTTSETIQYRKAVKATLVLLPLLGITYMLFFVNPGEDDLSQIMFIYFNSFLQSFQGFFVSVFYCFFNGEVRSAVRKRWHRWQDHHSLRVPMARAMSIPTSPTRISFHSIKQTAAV
T2 sequence (P24387 whole entry): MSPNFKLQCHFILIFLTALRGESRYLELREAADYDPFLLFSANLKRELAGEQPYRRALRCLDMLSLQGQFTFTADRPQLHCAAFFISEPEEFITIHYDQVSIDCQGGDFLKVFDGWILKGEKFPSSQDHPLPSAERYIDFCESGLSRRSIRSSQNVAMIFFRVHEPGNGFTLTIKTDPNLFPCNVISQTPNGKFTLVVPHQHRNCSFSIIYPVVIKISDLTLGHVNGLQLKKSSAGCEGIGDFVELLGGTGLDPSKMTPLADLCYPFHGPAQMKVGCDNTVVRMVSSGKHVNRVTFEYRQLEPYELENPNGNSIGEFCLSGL
Put plainly: activators of CRF receptor 2 with binding protein – uHTS hits, confirmation (AID 602473). Type of data set: functional. Conditions: read-out: EC50_Mean.

Data set [7] has as its system Streptococcus sp. 'group A'. Kind of data set: Streptococcus pyogenes SK(-)GAS viability under kanamycin – luminescence, BacTiterGlo, confirmation, counter-screen for streptokinase expression inhibitor project, dose response (AID 1900). The format is functional, organism-based. For orientation: Counterscreens check selectivity or assay interference.
Data set [8] has as its system Streptococcus. Kind of data set: GAS UMAA2166 growth inhibition – luminescence, BacTiterGlo, counter-screen for streptokinase expression inhibitor project, dose response (AID 1915).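 Note: potency for reduction of bacterial viability or growth.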 The format is functional, organism-based.
Data set [9] concerns the target Cytochrome P450 2C9 (Homo sapiens, UniProt P11712).
Data set [10] can be described thus: Trypanosoma cruzi growth suppression in host cells – NIH3T3 host cells, beta-gal luminescence, confirmation (AID 2044).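 Note: intracellular parasites grown in NIH/3T3 mouse fibroblasts as host cells; luminescent beta-galactosidase reporter signal from transgenic T. cruzi replicating inside host cells; inhibitors lower the luminescence signal.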 Type of data set: functional, cell-based.
A short description of data set [11]: NIH3T3 cell viability loss – ATP luminescence, mouse fibroblasts, counter-screen, dose response (AID 2010).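 Note: cells exposed to compound for about 90 hours before reading.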 The format is functional, cell-based.
Data set [12] can be described thus: Luminescence Cell-Based Dose Retest to Confirm Inhibitors of Cancer Stem Cells. [Related pubchem assays (depositor defined):AID2717, AID2721]. Type of data set: functional. Particulars: Homo sapiens.
In data set [13] the target is T3, Heat shock factor protein 1 (Mus musculus, UniProt P38532).
T3 sequence (P38532 whole entry): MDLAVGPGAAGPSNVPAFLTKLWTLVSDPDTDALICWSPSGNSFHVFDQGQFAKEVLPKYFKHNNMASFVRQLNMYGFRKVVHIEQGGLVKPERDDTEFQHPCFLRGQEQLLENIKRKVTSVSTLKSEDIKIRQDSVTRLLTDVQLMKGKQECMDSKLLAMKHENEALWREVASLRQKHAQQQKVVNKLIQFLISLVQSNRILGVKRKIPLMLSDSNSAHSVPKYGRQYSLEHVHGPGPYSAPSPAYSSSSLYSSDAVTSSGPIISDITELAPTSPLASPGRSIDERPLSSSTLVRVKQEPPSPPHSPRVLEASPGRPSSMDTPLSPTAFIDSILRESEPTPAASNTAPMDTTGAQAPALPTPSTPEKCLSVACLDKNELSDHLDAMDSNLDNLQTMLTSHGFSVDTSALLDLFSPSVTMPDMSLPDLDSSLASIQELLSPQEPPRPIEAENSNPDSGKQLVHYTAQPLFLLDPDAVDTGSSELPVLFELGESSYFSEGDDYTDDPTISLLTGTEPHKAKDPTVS
Kind of data set: decrease of HSF1-responsive luciferase luminescence – cell-based, NIH3T3, dose retest, confirmation (AID 2382).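 Note: NIH3T3 fibroblasts with HSF1-driven luciferase reporter stressed by proteasome inhibitor MG132; luminescence from HSF1-driven luciferase expression after 8 hours of MG132 stress.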 The format is functional.

In data set [14] the test system is INS1. Put plainly: INS-1E survival protection against cytokine death – cell-based, luminescence, retest, dose response (AID 449756).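 Note: cell death triggered by IL-1 beta plus TNF-alpha plus IFN-gamma mixture; protective hits raise ATP signal compared with cytokine alone wells.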 The format is functional. Conditions: Rattus norvegicus.

Sequence of Cytochrome P450 2C9 (P11712 whole entry): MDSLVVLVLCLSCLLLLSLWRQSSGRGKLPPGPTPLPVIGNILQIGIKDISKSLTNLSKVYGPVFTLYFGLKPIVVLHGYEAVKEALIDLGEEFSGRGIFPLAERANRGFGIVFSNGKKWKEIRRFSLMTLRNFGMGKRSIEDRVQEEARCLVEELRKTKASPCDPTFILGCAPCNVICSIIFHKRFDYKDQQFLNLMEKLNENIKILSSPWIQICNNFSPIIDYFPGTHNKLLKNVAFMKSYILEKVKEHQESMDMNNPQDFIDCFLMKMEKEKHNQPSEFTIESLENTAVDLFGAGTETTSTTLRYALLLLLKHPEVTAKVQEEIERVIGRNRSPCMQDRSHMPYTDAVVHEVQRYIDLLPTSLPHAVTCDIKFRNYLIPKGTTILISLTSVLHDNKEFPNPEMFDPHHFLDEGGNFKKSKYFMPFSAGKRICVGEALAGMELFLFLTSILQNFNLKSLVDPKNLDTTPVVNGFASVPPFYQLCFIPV
Sequence of Cytochrome P450 3A4 (P08684 whole entry): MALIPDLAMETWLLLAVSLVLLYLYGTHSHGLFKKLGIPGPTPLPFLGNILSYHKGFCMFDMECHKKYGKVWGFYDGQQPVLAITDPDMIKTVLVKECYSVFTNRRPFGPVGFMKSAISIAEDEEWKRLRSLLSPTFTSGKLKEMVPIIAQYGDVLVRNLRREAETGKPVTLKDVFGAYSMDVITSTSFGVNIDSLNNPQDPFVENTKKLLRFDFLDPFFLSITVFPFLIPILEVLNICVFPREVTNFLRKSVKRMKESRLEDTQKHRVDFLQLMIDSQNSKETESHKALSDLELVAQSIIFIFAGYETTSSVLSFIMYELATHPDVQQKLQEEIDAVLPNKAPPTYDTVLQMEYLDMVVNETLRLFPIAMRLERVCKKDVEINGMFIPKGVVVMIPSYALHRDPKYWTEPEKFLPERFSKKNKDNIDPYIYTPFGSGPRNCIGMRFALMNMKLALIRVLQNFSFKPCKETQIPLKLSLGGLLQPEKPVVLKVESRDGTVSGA
Sequence of Cytochrome P450 2C19 (P33261 whole entry): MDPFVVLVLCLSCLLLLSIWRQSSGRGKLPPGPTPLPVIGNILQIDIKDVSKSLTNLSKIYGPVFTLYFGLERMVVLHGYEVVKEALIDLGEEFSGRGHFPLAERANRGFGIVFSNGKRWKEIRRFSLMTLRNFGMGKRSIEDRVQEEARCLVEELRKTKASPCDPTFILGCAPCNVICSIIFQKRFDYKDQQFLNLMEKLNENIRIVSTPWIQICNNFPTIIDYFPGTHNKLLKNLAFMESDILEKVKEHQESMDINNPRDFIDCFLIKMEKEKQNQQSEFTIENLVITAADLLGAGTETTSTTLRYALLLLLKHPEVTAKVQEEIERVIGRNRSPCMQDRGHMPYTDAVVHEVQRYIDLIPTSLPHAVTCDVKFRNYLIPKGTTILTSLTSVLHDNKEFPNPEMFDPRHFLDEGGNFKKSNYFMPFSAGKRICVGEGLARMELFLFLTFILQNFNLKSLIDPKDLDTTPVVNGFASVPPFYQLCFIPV
Sequence of Paired box protein Pax-8 (Q06710 whole entry): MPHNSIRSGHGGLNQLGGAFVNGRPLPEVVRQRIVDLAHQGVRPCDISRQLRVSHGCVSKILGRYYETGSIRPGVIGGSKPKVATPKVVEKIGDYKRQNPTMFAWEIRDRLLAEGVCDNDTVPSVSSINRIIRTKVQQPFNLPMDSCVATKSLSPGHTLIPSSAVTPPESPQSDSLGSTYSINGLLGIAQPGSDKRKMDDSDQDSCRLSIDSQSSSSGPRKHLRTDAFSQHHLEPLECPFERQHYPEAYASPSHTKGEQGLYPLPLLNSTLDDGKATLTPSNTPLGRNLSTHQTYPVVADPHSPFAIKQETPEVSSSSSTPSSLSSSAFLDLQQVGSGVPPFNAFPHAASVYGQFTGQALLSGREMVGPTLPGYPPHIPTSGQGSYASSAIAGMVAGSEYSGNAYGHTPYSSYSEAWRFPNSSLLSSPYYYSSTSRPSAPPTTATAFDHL

As for `COCCn1c(=O)c(-c2ccc(F)cc2)nc2cnc(Nc3cccc(OC)c3)nc21`, in data set [1], the AC50 was 3.16 µM (inconclusive).
Turning to `Cc1nnc(-c2cnn(-c3ccccc3)c2N)n1Cc1ccncc1`, the AC50 in [2] (read-out: AC50) was 11.2 µM (inconclusive); in [1] it was 11.2 µM (inconclusive); in data set [3] it was 15.8 µM (inconclusive).
With `O=C(O)/C=C\c1ccc(Cn2ccnc2)cc1`, in [1], the half-maximal activity concentration (AC50) is 12.6 µM (inconclusive).
With `COC(=O)N1CCC2(CCCN(c3ccncc3)C2)CC1`, the AC50 result in data set [2] was “inconclusive”.
`C[C@@H]1CN([C@H](C)CO)C(=O)c2cc(NC(=O)Nc3ccc(C(F)(F)F)cc3)ccc2O[C@@H](C)CCCCO[C@H]1CN(C)S(=O)(=O)c1ccc(F)cc1`: the AC50 in data set [4] was 6.53 µM (active).
For `COc1ccccc1N1CCN(C(=O)c2sc3ncnc(N4CCN(c5ccccn5)CC4)c3c2C)CC1`, the CC50 in [5] was 12.2 µM (active).
With `C[C@@H](CN1CCC(Cc2ccccc2)CC1)[C@H](O)c1ccc(O)cc1`, the AC50 in [1] is 12.6 µM (inconclusive).
Take `N#CC1(c2ccc(NC(=O)c3ccccc3F)cc2)CCCC1`: in data set [5], the CC50 is > 50 µM (active).
With `CCC(C)Nc1nc(OCC(F)(F)F)nc(OCC(F)(F)F)n1` (centres undefined), the AC50 in data set [2] (read-out: AC50) is 3.16 µM (inconclusive).
Regarding `O=C1NN=C(c2ccc(Cl)cc2)CC1c1cccc(Cl)c1` (centres undefined), the CC50 in data set [5] was 30.2 µM (active).
On the same count and under the same terms, in the case of `COc1ccc(-c2nn(-c3ccccc3)cc2/C=N/NS(=O)(=O)c2ccccc2)cc1` it was 17.8 µM (active).
On the same count and under the same terms, the same measure for `COC(=O)c1c(-c2ccc(C)cc2)csc1NC(=O)c1c(-c2ccccc2)noc1C`: 26.5 µM (active).
For `CCCCCCNC(=O)C(C#N)c1nc2ccccc2nc1N1CCCC1` (centres undefined), the EC50 in data set [6] was 5.12 µM (active).
`Cc1cccc(OC2(c3ccccc3)OC(=O)c3ccccc32)c1C` (centres undefined): the AC50 in [1] is 14.1 µM (inconclusive); in data set [3], 28.2 µM (inconclusive).
In the case of `C[C@@H]1CCCCO[C@H](CN(C)C(=O)C2CCCCC2)[C@@H](C)CN([C@@H](C)CO)C(=O)c2cc(NC(=O)Nc3ccccc3)ccc2O1`, the AC50 in data set [4] is 5.39 µM (active).
For the molecule `COc1cc(OC)cc(C(=O)Nc2nnc(N=C(S)Nc3ccccc3)s2)c1`, in data set [5], the CC50 was 8.31 µM (active). Further, the EC50 in data set [7] was 9.71 µM (active); in data set [8], 30.7 µM (active).
Consider `CN(Cc1cc(Br)cc(Br)c1O)Cc1c(O)ccc2ccccc12`, for which the values for the AC50 in data set [1], in [3] and in data set [9] were 1.26 µM (inconclusive), 3.98 µM (inconclusive) and 3.16 µM (inconclusive), respectively.
For the molecule `Cc1cccc(NC(=NS(=O)(=O)c2ccccc2)C(F)(F)F)c1`, the AC50 is 22.4 µM (inconclusive) in [2] (read-out: AC50) and 25.1 µM (inconclusive) in [3].
As for `N=c1c(-c2nc3ccccc3[nH]2)cc(C(=O)c2cccs2)nn1-c1ccccc1`, in data set [5], the CC50 was 15.3 µM (active). The EC50 was 1.51 µM (active) in [7], 0.39 µM (active) in data set [10], > 60 µM (not active) in data set [11] and 5.63 µM (active) in [8].
Consider `CCCn1nc(Oc2nc(NCC)nc(NCC)n2)ccc1=O`, for which the AC50 in data set [2] (read-out: AC50) is 31.6 µM (inconclusive); in data set [1] it was 15.8 µM (inconclusive).
For the molecule `CCc1ccccc1S(=O)(=O)Cc1ccc(C(=O)N2CCN(c3ccccc3OC)CC2)o1`, the CC50 in data set [5] is > 50 µM (active).
Still for that read-out and setting: in the case of `CCCCCn1c(SCc2ccncc2)nc2cc(C(=O)NCc3ccco3)ccc2c1=O` it was 48.3 µM (active).
In the case of `COc1ccc(-n2c(=O)c(C)nc3cnc(Nc4ccccc4)nc32)cc1`, the AC50 in [1] was 5.01 µM (inconclusive); in [9], 20 µM (inconclusive).
With `CN(Cc1c(F)cccc1Cl)C(=O)CCc1c[nH]c2ccccc12`, the CC50 in data set [5] is 30 µM (active).
Take `CC1CCCCN1c1cc(C#N)c(C#N)cc1[N+](=O)[O-]` (centres undefined): the AC50 in [12] is 0.174 µM (active); in data set [1] it was 3.16 µM (inconclusive); in data set [3], 15.8 µM (inconclusive); in [9] it was 5.01 µM (inconclusive).
`O=C(c1ccco1)N1CCC2(CCCN(c3ccccn3)C2)CC1`: the results for the AC50 in data set [1] and in [3] were 10 µM (inconclusive) and 15.8 µM (inconclusive), respectively.
Consider `C/C(N)=C(/C#N)C(=O)CSc1nnc(COc2cc(C)ccc2C)o1`, for which the AC50 was 4.47 µM (inconclusive) in data set [1] and 7.08 µM (inconclusive) in data set [9].
Turning to `O=C(Nc1cccc2ncccc12)c1cccc(F)c1`, the AC50 was 15.8 µM (inconclusive) in data set [1] and 22.4 µM (inconclusive) in [3].
For `CCOC(=O)CSc1nnc(Cc2cc(O)nc(O)n2)n1-c1cccc(OC)c1`, the figures for the AC50 result in [2] and in data set [3] were “inconclusive” and 22.4 µM (inconclusive), respectively.
For `COCCNC(=O)C(c1ccc(C)o1)N(CC1CCCO1)C(=O)Cn1nnc2ccccc21` (centres undefined), the results for the half-maximal activity concentration (AC50) result in data set [2], in data set [1] and in data set [3] were “inconclusive”, 12.6 µM (inconclusive) and 15.8 µM (inconclusive), respectively.
Take `O=C(Nc1ccc(N2CCCCC2)c(Cl)c1)c1nc[nH]n1`: in [5], the CC50 was 16.6 µM (active).
As to `CN(Cc1ccco1)c1ccnc(-c2ccoc2)n1`, the AC50 in data set [2] (read-out: AC50) was 25.1 µM (inconclusive).
The same measure, in the same setting: in the case of `CCCCn1cnc2c(cnn2-c2ccc(F)cc2)c1=O` it was 2.51 µM (inconclusive).
As for `Cc1ccc(S(=O)(=O)N2CCC(C(=O)N[C@@H](Cc3ccccc3)C(=O)O)CC2)cc1`, the EC50 in data set [13] was > 195 µM (not active).
Take `Cc1ccc(NC(S)=NCc2ccc3[nH]c4c(c3c2)CCCC4)cc1`: in [5], the CC50 was 9.29 µM (active).
For `O=C(C1=C[C@H](c2ccc(C(F)(F)F)cc2)C[C@H](OCCCCO)O1)N1CCN(Cc2ccc3c(c2)OCO3)CC1`, in data set [13], the EC50 is listed as > 195 µM (not active).
With `CCCCN(C)CCNC(=O)c1cc2c(-c3ccccc3F)nn(C)c2s1`, in [13], the EC50 was > 195 µM (not active). The AC50 in data set [14] is > 260 µM (inactive).
On to `Cn1c(SCc2ccccc2Cl)nc2c1c(=O)[nH]c(=O)n2C`, for which, in data set [5], the CC50 is > 50 µM (active).
Consider `CCCCC1=NN2C(=N)CC(=O)N=C2S1`, for which the AC50 in data set [1] is 25.1 µM (inconclusive); in data set [9], 2.51 µM (inconclusive).

As a reminder, the AC50 is the concentration giving half of the maximal activity seen. The CC50 is the concentration at which the toxic effect on the cells reaches its halfway point.

For the origin of these results see ChEMBL document CHEMBL1201862, “PubChem BioAssay data set” (2004).
